Read-outs that look alike come from different tables or passages of the source.
Columns and labels:
Type in all cases: cell-based, human
[1] = system: imatinib resistant CML K562R cells; test: Cell cycle analysis (flow cytometry) of imatinib resistant CML K562R cells; conditions: 24 hours
Method: The CML cell line, K562R, was cultured in the presence of a continuous low dose of imatinib mesylate, which is also termed STI-571, to generate their resistance to imatinib. In operation, K562R cells were maintained in the DMEM supplemented with 10% fetal calf serum (FCS), 100 IU/ml penicillin, 100 μg/ml streptomycin, 2 mM glutamine and 0.2 μM imatinib in 5% CO2 at 37° C.
(§1) The fixed cells were then warmed up to room temperature and treated with RNAase A for about 30 min. Precipitated cells were collected by centrifugation and re-suspended in a buffer solution containing propidium iodine (20 μg/ml) before being subject to flow cytometry analysis, where cell numbers at respective cell cycles were determined.
(§2) The imatinib resistant human chronic myelogenous leukemia (CML) cell line K562R was induced by procedures described above in the “Materials and Methods” Section. Anti-proliferative activity of I7557 and I7557 were respectively assessed by cell viability and cell cycle analysis, as well as by immunoblot and Liu's Staining.

[2] = system: imatinib resistant CML K562R cells; test: Liu's staining, morphology of imatinib resistant CML K562R cells; conditions: 20 μM, indicates apoptosis and mitotic arrest
Excerpt: as §2

β-tubulin = test: Immunoblot analysis of β-tubulin in K562R cells; conditions: FIG. 4
Method: (§3) Cultured cells were lysed by use of well known lysing buffer, and total amount of proteins were determined by Bradford method. […] The separated proteins were then transferred to nitrocellulose membrane and non-specific binding was removed by TBST buffer (0.8% NaCl, 0.02% KCl, 25 mM Tris-HCl/pH 8.0 and 0.1% Tween-20) containing 4% skim milk. Antibodies including p-Plk-1, p-Chk-1, p-Chk-2, p-Cdc2, GAPDH, α-tubulin, β-tubulin, and p-histone H3 (purchased from Transduction Laboratories, Lexington, Ky., USA), were respectively dissolved in TBST buffer containing 2% skim milk and incubated with the separated protein bands at 4° C. for at least over night; followed by incubation with horseradish conjugated secondary antibodies at room temperature for about 30 min, and then detected by ECL chemiluminesance detection kit (Amersham Pharmacia Biotech, US).

cyclin B1 = test: Immunoblot analysis of cyclin B1 in K562R cells; conditions: FIG. 5
Method: as §3

p-Plk-1 = test: Immunoblot analysis of phosphorylated Plk-1 in K562R cells; conditions: FIG. 6
Method: as §3

p-Chk-1 = test: Immunoblot analysis of p-Chk-1 in K562R cells; conditions: FIG. 7
Method: as §3

p-Chk-2 = test: Immunoblot analysis of p-Chk-2 in K562R cells; conditions: FIG. 8
Method: as §3

p-Cdc2 kinase = test: Immunoblot analysis of p-cdc2 kinase in K562R cells; conditions: FIG. 9
Method: as §3

[3] = system: phosphorylated histone H3; test: Immunoblot analysis of phosphorylated histone H3 in K562R cells; conditions: FIG. 10
Method: as §3

PANC-1 cells [4] = test: Cell cycle analysis of PANC-1 cells; conditions: 24 hours
Method: as §1

PANC-1 cells [5] = test: Radiation treatment and clonogenic assay, PANC-1 cells
Excerpt: (§4) The drugs were then washed out, and cells were subject to radiation treatment. Specifically, 6 MeV electron beam energy was delivered by a linear accelerator (Clinac 1800, Varian Associates, Inc., Palo Alto, Calif., USA) with a rate of 2.4 Gy/min at various dose including 0, 0.5, 1, 2 and 4 Gy in a single fraction. Full electron equilibrium was ensured for each fraction by a parallel plate PR-60C ionization chamber ([…], Inc., Ramsey, N.Y., USA).
(§5) After radiation treatment, cells were returned to the culture for another 10 to 14 days; then were stained with 3% crystal violet and the numbers of colony (≧50 cells) were counted.
(§6) The colony is defined to consist of at least 50 cells.

BxPC-3 cells = test: Radiation treatment and clonogenic assay, BxPC-3 cells
Excerpt: as §4, §5, §6

81T/VGH cells = test: MTT cell viability assay on 81T/VGH cells; design: key to Cell viability (MTT reading), I / Cell viability (MTT reading), II / Cell viability (MTT reading), III / Cell viability (MTT reading), Average: absorbance at 570 nm; conditions: 48 hours; for Cell viability (MTT reading), I: replicate I; for Cell viability (MTT reading), II: replicate II; for Cell viability (MTT reading), III: replicate III
Method: (§7) Cell lines used in the present disclosure include human chronic myelogenous leukemia (CML) cell line K562, Imatinib-resistant K562 cell line K562R, human pancreatic carcinoma, epithelial-like cell line PANC-1, human pancreatic cancer cell line BxPc-3, human large cell lung cancer cell line SEG-1, human esophageal squamous cell carcinoma line 81T/VGH and human esophageal adenocarcinoma line BE-3. Each cell lines were cultured and maintained in Dulbecco's modified Eagle media (DMEM) supplemented with 10% fetal calf serum, 100 IU/ml penicillin, 100 μg/ml streptomycin, and 2 mM glutamine in 5% CO2 at 37° C.
(§8) The absorbance of the solution at 570 nm was measured by spectrophotometer.

BE-3 cells = test: MTT cell viability assay on BE-3 cells; design: key to Cell viability (MTT reading), I / Cell viability (MTT reading), II / Cell viability (MTT reading), Average / Cell viability (MTT reading), III: absorbance at 570 nm; conditions: for Cell viability (MTT reading), I: replicate I; for Cell viability (MTT reading), II: replicate II
Method: as §7, §8

CS(=O)(=O)CCCCCCN=C=S [I7557, 6-methylsulfonylhexyl isothiocyanate]
Cell Cycle (%) G0/G1 ([1]; 5 μM): 30.79 ± 2.28%
Cell Cycle (%) G2/M ([1]; 5 μM): 22.84 ± 0.60%
Cell Cycle (%) S ([1]; 5 μM): 46.38 ± 1.73%
Cell Cycle (%) Sub-G1% ([1]; 5 μM): 0.52 ± 0.07%
Cell Cycle (%) G0/G1 ([1]; 10 μM): 30.52 ± 0.96%
Cell Cycle (%) G2/M ([1]; 10 μM): 18.40 ± 1.16%
Cell Cycle (%) S ([1]; 10 μM): 51.08 ± 0.36%
Cell Cycle (%) Sub-G1% ([1]; 10 μM): 1.18 ± 0.08%
Cell Cycle (%) G0/G1 ([1]; 20 μM): 11.54 ± 6.51%
Cell Cycle (%) G2/M ([1]; 20 μM): 65.10 ± 8.16%
Cell Cycle (%) S ([1]; 20 μM): 23.36 ± 2.45%
Cell Cycle (%) Sub-G1% ([1]; 20 μM): 5.33 ± 1.46%
Cell morphology after Liu's staining [2]: round up with an appearance of a balloon
β-tubulin levels vs control cells (β-tubulin): lowered
level of cyclin B1 vs control (cyclin B1): increased
level of phosphorylated Plk-1 vs control (p-Plk-1): increased
level of p-Chk-1 vs control (p-Chk-1): decreased
level of p-Chk-2 vs control (p-Chk-2): decreased
level of p-cdc2 kinase vs control (p-Cdc2 kinase): decreased
levels of phosphorylated histone H3 vs control cells [3]: significantly higher
Cell Cycle (%) G0/G1 (PANC-1 cells [4]; 10 μM): 45.43 ± 1.27%
Cell Cycle (%) G2/M (PANC-1 cells [4]; 10 μM): 28.38 ± 2.41%
Cell Cycle (%) S (PANC-1 cells [4]; 10 μM): 26.19 ± 3.28%
Cell Cycle (%) Sub-G1% (PANC-1 cells [4]; 10 μM): 0.79 ± 0.05%
Cell Cycle (%) G0/G1 (PANC-1 cells [4]; 20 μM): 24.71 ± 2.98%
Cell Cycle (%) G2/M (PANC-1 cells [4]; 20 μM): 55.84 ± 0.63%
Cell Cycle (%) S (PANC-1 cells [4]; 20 μM): 19.45 ± 3.32%
Cell Cycle (%) Sub-G1% (PANC-1 cells [4]; 20 μM): 2.05 ± 0.44%
Number of colonies (clonogenic assay) (PANC-1 cells [5]; PANC-1, 5 μM pre-treatment 24 hours, radiation 0 Gy): 60
Number of colonies (clonogenic assay) (PANC-1 cells [5]; PANC-1, 5 μM pre-treatment 24 hours, radiation 0.5 Gy): 63
Number of colonies (clonogenic assay) (PANC-1 cells [5]; PANC-1, 5 μM pre-treatment 24 hours, radiation 1 Gy): 59
Number of colonies (clonogenic assay) (PANC-1 cells [5]; PANC-1, 5 μM pre-treatment 24 hours, radiation 2 Gy): 48
Number of colonies (clonogenic assay) (PANC-1 cells [5]; PANC-1, 5 μM pre-treatment 24 hours, radiation 4 Gy): 20
susceptibility of cells to radiation treatment (PANC-1 cells [5]; PANC-1, 10 μM): enhancing the susceptibility
Number of colonies (clonogenic assay) (PANC-1 cells [5]; PANC-1, 10 μM pre-treatment 24 hours, radiation 0 Gy): 41
Number of colonies (clonogenic assay) (PANC-1 cells [5]; PANC-1, 10 μM pre-treatment 24 hours, radiation 0.5 Gy): 26
Number of colonies (clonogenic assay) (PANC-1 cells [5]; PANC-1, 10 μM pre-treatment 24 hours, radiation 1 Gy): 35
Number of colonies (clonogenic assay) (PANC-1 cells [5]; PANC-1, 10 μM pre-treatment 24 hours, radiation 2 Gy): 19
Number of colonies (clonogenic assay) (PANC-1 cells [5]; PANC-1, 10 μM pre-treatment 24 hours, radiation 4 Gy): 6
Number of colonies (clonogenic assay) (BxPC-3 cells; BxPC-3, 5 μM pre-treatment 24 hours, radiation 0 Gy): 33
Number of colonies (clonogenic assay) (BxPC-3 cells; BxPC-3, 5 μM pre-treatment 24 hours, radiation 0.5 Gy): 37
Number of colonies (clonogenic assay) (BxPC-3 cells; BxPC-3, 5 μM pre-treatment 24 hours, radiation 1 Gy): 39
Number of colonies (clonogenic assay) (BxPC-3 cells; BxPC-3, 5 μM pre-treatment 24 hours, radiation 2 Gy): 29
Number of colonies (clonogenic assay) (BxPC-3 cells; BxPC-3, 5 μM pre-treatment 24 hours, radiation 4 Gy): 9
Number of colonies (clonogenic assay) (BxPC-3 cells; BxPC-3, 10 μM pre-treatment 24 hours, radiation 0 Gy): 16
Number of colonies (clonogenic assay) (BxPC-3 cells; BxPC-3, 10 μM pre-treatment 24 hours, radiation 0.5 Gy): 15
Number of colonies (clonogenic assay) (BxPC-3 cells; BxPC-3, 10 μM pre-treatment 24 hours, radiation 1 Gy): 8
Number of colonies (clonogenic assay) (BxPC-3 cells; BxPC-3, 10 μM pre-treatment 24 hours, radiation 2 Gy): 7
Number of colonies (clonogenic assay) (BxPC-3 cells; BxPC-3, 10 μM pre-treatment 24 hours, radiation 4 Gy): 1
susceptibility of cells to radiation treatment (BxPC-3 cells; BxPc-3, 10 μM): enhancing the susceptibility
Cell viability (MTT reading), Average (81T/VGH cells; 10 μM): 1.514 ± 0.104
Cell viability (MTT reading), I (81T/VGH cells; 10 μM): 1.324
Cell viability (MTT reading), II (81T/VGH cells; 10 μM): 1.682
Cell viability (MTT reading), III (81T/VGH cells; 10 μM): 1.537
Cell viability (MTT reading), Average (81T/VGH cells; 20 μM): 0.965 ± 0.086
Cell viability (MTT reading), I (81T/VGH cells; 20 μM): 0.804
Cell viability (MTT reading), II (81T/VGH cells; 20 μM): 0.991
Cell viability (MTT reading), III (81T/VGH cells; 20 μM): 1.100
inhibition at 10 µM (81T/VGH cells; Homo sapiens, 10 μM): 30.6 ± 5.18%
inhibition at 20 µM (81T/VGH cells; Homo sapiens, 20 μM): 55.4 ± 6.11%
Cell viability (MTT reading), Average (BE-3 cells; BE-3, 10 μM, 48 hours): 1.635 ± 0.078
Cell viability (MTT reading), I (BE-3 cells; BE-3, 10 μM, 48 hours): 1.581
Cell viability (MTT reading), II (BE-3 cells; BE-3, 10 μM, 48 hours): 1.534
Cell viability (MTT reading), Average (BE-3 cells; BE-3, 20 μM, 48 hours): 1.151 ± 0.028
Cell viability (MTT reading), I (BE-3 cells; BE-3, 20 μM, 48 hours): 1.105
Cell viability (MTT reading), II (BE-3 cells; BE-3, 20 μM, 48 hours): 1.147
Cell viability (MTT reading), III (BE-3 cells; BE-3, 20 μM, 48 hours, replicate III): 1.201
inhibition at 10 µM (BE-3 cells; Homo sapiens, BE-3, 10 μM, 48 hours): 26.8 ± 1.05%
inhibition at 20 µM (BE-3 cells; Homo sapiens, BE-3, 20 μM, 48 hours, read-out: % of inhibition): 48.4 ± 1%
inhibition at 20 µM (BE-3 cells; Homo sapiens, BE-3, 20 μM, read-out: cancerous cells' growth inhibition): ~50%

Reference: patent publication US8691870B2, “Use of isothiocyanates for treating cancer” (Mackay Memorial Hospital, priority 2011, dated 2014)
